Assay results published in patent publication US4703036A, “Peptide-aldehydes, process for the preparation thereof and pharmaceutical compositions containing the same” (Richter Gedeon Vegyeszeti Gyar RT, priority 1984, dated 1987).
Non-standard residues stand in square brackets, D forms with d. Residues, ends and D or L forms follow the SMILES beside them. dNMeaIle = CC[C@H](C)[C@@H](NC)C(=O)O

Experiments:
[1] = tested on: male New Zealand rabbits; assay: In vivo anticoagulant effect: whole blood clotting time and plasma thrombin time; design: species or system rabbit; conditions: lowest dose required to attain therapeutic effect; for Lowest effective dose iv: intravenous infusion for 3 hours; for Lowest effective dose po: oral administration
Procedure: The peptides, dissolved in isotonic saline solution, were administered orally or intravenously to male New Zealand rabbits weighing 2 to 3 kg. At intravenous application infusions of 0.5 to 2.0 mg/kg/h were given at a rate of 6 ml/h for 3 hours. At oral administration 20 to 30 mg/kg doses of the peptides were given in volumes of 2 ml. After application blood samples were taken in 30 minute periods from the ear vein of the rabbits and the clotting time of whole blood was assayed in a Thromboelastograph [H. Harter: Zeitschrift fur klinische Medizin 153, 423 (1955)], simultaneously the plasma thrombin time was measured, too [R. T. S. Jim: J. Lab. Clin. Med. 50, 45 (1957)]. The lowest doses required to attain therapeutic effect (M. Verstraete and R. Verwilghen in Drug Treatment, 2nd ed., Ed.: G. S. Avery, Churchill Livingstone, Edinburgh-London, 1980, p. 919) were presented in Table 3, D-phenylalanyl-L-prolyl-L-arginine-aldehyde sulfate served as reference substance.

[2] = target: T1, US Standard Human Thrombin (Homo sapiens, UniProt P00734); assay: Change in the antithrombin activity of aqueous solutions of tripeptide-aldehyde sulfates on storage; assay type: physicochemical; conditions: aqueous solution 10 mg/ml; for loss of initial antithrombin activity during the observation period: pH 6.0, 40° C., 5 days; for Activity (%) Day 1 / Activity (%) Day 2 / Activity (%) Day 3: percentage of initial activity, pH = 6.0, stored at 40° C.
T1 construct: US Standard Human Thrombin; purchased NIH, Bethesda, Md., USA
Procedure: The transformations proceeding in the solutions were monitored by chromatography and by measuring antithrombin activity. Antithrombin activities were assayed in a system containing the following components: […] 0.1 ml US Standard Human Thrombin (NIH, Bethesda, Md., USA), 10 unit/ml solution. The clotting time of the peptide-free system is 15 s, measured in the "[…]-Gross-Coagulometer". The initial activity of the tripeptide-aldehyde sulfates was arbitrarily set up as the mole concentration inducing the fivefold prolongation of clotting time in the system compared to the control ([…] value).

[3] = target: T1, US Standard Human Thrombin; assay: Antithrombin activity: clotting time in the thrombin-fibrinogen system; assay type: biochemical; conditions: for Initial activity I80 (zero day): peptide concentration in the reaction mixture inducing a fivefold prolongation of clotting time compared to the control (15 s)
Procedure: Antithrombin activities were assayed in a system containing the following components:
(§1) 0.2 ml 0.5 percent bovine fibrinogen in a 0.9 percent solution of sodium chloride,
0.1 ml tris(hydroxymethyl)-amino-methane-hydrochloride-hydrochloric acid buffer (pH=7.2) containing the peptide solution, and
0.1 ml US Standard Human Thrombin (NIH, Bethesda, Md., USA), 10 unit/ml solution.
The clotting time of the peptide-free system is 15 s, measured in the "Schnither-Gross-Coagulometer". The initial activity of the tripeptide-aldehyde sulfates was arbitrarily set up as the mole concentration inducing the fivefold prolongation of clotting time in the system compared to the control (I80 value). The activity of the peptides in the solutions, assayed on the 1st, 3rd and 5th day, was expressed as a percentage of the initial activity (zero day).

[4] = Conversion to the tricyclic compound in aqueous solution, monitored by chromatography; assay type: physicochemical; conditions: for irreversible conversion to the tricyclic compound: aqueous solution 10 mg/ml, pH=6.0, 40° C., 5 days, thin-layer chromatography
Procedure: The structure of this compound [1,2,4,5,6,6a-hexahydro-1-benzyl-2-oxo-8-(4'-guanidino)-butyl-pyrrolo[1,2- a]imidazolo[2,1-c]pyrazine] was confirmed by mass spectrometry and NMR spectroscopy. […] 817], they are less suitable for anticoagulant therapy.
During stability testing aqueous solutions of D-phenylalanyl-L-prolyl-L-arginine-aldehyde sulfate as well as of the corresponding N-alkyl derivatives with a concentration of 10 mg/ml (pH=6.0) were stored at 40° C. for 5 days. The transformations proceeding in the solutions were monitored by chromatography and by measuring antithrombin activity.

[5] = target: T2, plasmin (Homo sapiens, UniProt P00747); assay: Effect on the plasmin-fibrin reaction: lysis time of fibrin clot; assay type: biochemical; design: key: **: No measurable lysis time due to clot of rather loose structure; conditions: peptide-free system 10 minutes
T2 construct: 0.1 U plasmin dissolved in buffer solution (KABI, Stockholm, Sweden); purchased KABI, Stockholm, Sweden
T2 sequence (P00747 581-810 limits assumed): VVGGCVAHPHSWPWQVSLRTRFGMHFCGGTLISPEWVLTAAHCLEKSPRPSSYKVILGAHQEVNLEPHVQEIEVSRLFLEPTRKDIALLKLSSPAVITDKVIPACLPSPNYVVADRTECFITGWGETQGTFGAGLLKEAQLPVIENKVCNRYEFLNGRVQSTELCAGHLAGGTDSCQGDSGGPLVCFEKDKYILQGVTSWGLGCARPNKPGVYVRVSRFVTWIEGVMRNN
T2 sequence (P00747 97-580 partner limits assumed): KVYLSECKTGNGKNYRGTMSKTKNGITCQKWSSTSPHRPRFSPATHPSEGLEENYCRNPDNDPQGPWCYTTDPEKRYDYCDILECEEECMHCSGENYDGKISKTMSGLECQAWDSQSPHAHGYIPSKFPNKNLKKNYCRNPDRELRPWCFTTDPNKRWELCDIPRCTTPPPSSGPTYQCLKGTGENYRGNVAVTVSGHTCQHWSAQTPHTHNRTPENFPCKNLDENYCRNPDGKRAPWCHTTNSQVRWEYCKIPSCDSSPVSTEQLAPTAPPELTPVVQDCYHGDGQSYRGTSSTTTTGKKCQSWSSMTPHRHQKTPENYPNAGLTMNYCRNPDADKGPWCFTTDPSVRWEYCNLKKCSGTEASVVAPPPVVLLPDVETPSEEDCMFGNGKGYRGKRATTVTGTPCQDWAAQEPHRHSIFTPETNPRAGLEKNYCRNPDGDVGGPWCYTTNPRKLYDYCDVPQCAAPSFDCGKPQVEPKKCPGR
Procedure: as §1
0.1 ml tris(hydroxymethyl)-amino-methane hydrochloride-hydrochloric acid buffer (pH=7.2), containing the peptide,
0.1 ml 0.1 U plasmin dissolved in buffer solution (KABI, Stockholm, Sweden), and
0.1 ml US Standard Human Thrombin (NIH, Bethesda, Md., USA) 10 U/ml solution.
The lysis time of the fibrin gel formed in the peptide-free system is 10 minutes. D-Phenylalanyl-L-prolyl-L-arginine-aldehyde sulfate and the above-mentioned t-butyloxycarbonyl-D-phenylalanyl-L-prolyl-L-arginine-aldehyde hemisulfate were used as reference substances.

[6] = target: T1, US Standard Human Thrombin; conditions: literature statement; cited from earlier work
[7] = target: T2, plasmin; conditions: literature statement; cited from earlier work
[8] = target: T1, US Standard Human Thrombin; conditions: cool solution (5° C.), prolonged period; Belgian patent specification No. 891,708; cited from earlier work
[9] = Conversion to the tricyclic compound in aqueous solution, monitored by chromatography; assay type: physicochemical

| Compound | loss of initial antithrombin activity during the observation period [2] | Activity (%) Day 1 [2] [%] | Activity (%) Day 2 [2] [%] | Activity (%) Day 3 [2] [%] | Initial activity I80 (zero day) [3] [µM] | irreversible conversion to the tricyclic compound ([4]; sulfate) | Lysis time of fibrin clot ([5]; peptide content 0.18 μM) [min] | Lysis time of fibrin clot ([5]; peptide content 0.36 μM) | Lysis time of fibrin clot ([5]; peptide content 0.72 μM) | Lowest effective dose iv [1] [mg/kg/h] | Lowest effective dose po [1] [mg/kg] | further results |
| --- | --- | --- | --- | --- | --- | --- | --- | --- | --- | --- | --- | --- |
| CC[C@H](C)[C@@H](NC)C(=O)N1CCC[C@H]1C(=O)N[C@H](C=O)CCCNC(=N)N.O=S(=O)(O)O [N-Methyl-D-alloisoleucyl-L-prolyl-L-arginine-aldehyde sulfate] (H-[dNMeaIle]-Pro-Arg-aldehyde) |  |  |  |  |  |  |  |  |  | 1.0 | 30 |  |
| 1,2,4,5,6,6a-hexahydro-1-benzyl-2-oxo-8-(4'-guanidino)-butyl-pyrrolo[1,2- a]imidazolo[2,1-c]pyrazine [tricyclic compound] |  |  |  |  |  |  |  |  |  |  |  | enzyme inhibitory activity ([3]; conversion product, method not described): devoid of enzyme inhibitory activity |
| CN(C)[C@H](Cc1ccccc1)C(=O)N1CCC[C@H]1C(=O)N[C@H](C=O)CCCNC(=N)N.O=S(=O)(O)O [N,N-Dimethyl-D-phenylalanyl-L-prolyl-L-arginine-aldehyde sulfate] |  |  |  |  |  |  |  |  |  |  | 30 | irreversible conversion to the tricyclic compound [4]: no such conversion was detectable |
| CC(=O)O.N=C(N)NCCC[C@@H](C=O)NC(=O)[C@@H]1CCCN1C(=O)[C@H](N)Cc1ccccc1 [D-phenylalanyl-L-prolyl-L-arginine-aldehyde acetate, reference compound] |  |  |  |  |  |  |  |  |  |  |  | transformation into the corresponding tricyclic compound ([4]; conditions not stated): especially highly susceptible |
| t-butyloxycarbonyl-D-phenylalanyl-L-prolyl-L-arginine-aldehyde hemisulfate |  |  |  |  |  |  | 10 | 20 min | 40 min |  |  | inhibition of the thrombin-fibrinogen reaction [6]: inhibit; effect on the plasmin-fibrin reaction [7]: inhibit |
| N=C(N)NCCC[C@@H](C=O)NC(=O)[C@@H]1CCCN1C(=O)[C@H](N)Cc1ccccc1.O=S(=O)(O)O [D-Phenylalanyl-L-prolyl-L-arginine-aldehyde sulfate, reference compound] | more than 50% | 100 | 50 | 40 | 0.25 |  | 10 | ** | no clot formed | 0.5 | 20 | stability: retention of initial activity in cool solution [8]: retaining its initial activity; time to practically complete transformation into the tricyclic compound at 37° to 40° C. ([9]; 37° to 40° C.): 10 to 14 days; transformation into the tricyclic compound at 80° to 100° C. ([9]; 80° to 100° C.): within hours; irreversible conversion to the tricyclic compound [4]: gradually reduced |

Second part, led by results:

| loss of initial antithrombin activity during the observation period [2] | Activity (%) Day 1 [2] [%] | Activity (%) Day 2 [2] [%] | Activity (%) Day 3 [2] [%] | Initial activity I80 (zero day) [3] [µM] | irreversible conversion to the tricyclic compound ([4]; sulfate) | Lysis time of fibrin clot ([5]; peptide content 0.18 μM) [min] | Lysis time of fibrin clot ([5]; peptide content 0.36 μM) | Lysis time of fibrin clot ([5]; peptide content 0.72 μM) | Compound | Lowest effective dose iv [1] [mg/kg/h] | Lowest effective dose po [1] [mg/kg] | further results |
| --- | --- | --- | --- | --- | --- | --- | --- | --- | --- | --- | --- | --- |
| 15 to 20% | 100 | 100 | 85 | 0.21 | fail to be irreversibly converted |  |  |  | CCN[C@H](Cc1ccccc1)C(=O)N1CCC[C@H]1C(=O)N[C@H](C=O)CCCNC(=N)N.O=S(=O)(O)O [N-Ethyl-D-phenylalanyl-L-prolyl-L-arginine-aldehyde sulfate] | 0.5 | 20 | irreversible conversion to the tricyclic compound ([4]; listed as N-ethyl derivative, sulfate): no such conversion was detectable |
| retained its initial potency |  |  |  |  | fail to be irreversibly converted | 10 | ** | no clot formed | CN[C@H](Cc1ccccc1)C(=O)N1CCC[C@H]1C(=O)N[C@H](C=O)CCCNC(=N)N.O=S(=O)(O)O [N-Methyl-D-phenylalanyl-L-prolyl-L-arginine-aldehyde sulfate] | 0.5 | 20 | irreversible conversion to the tricyclic compound ([4]; listed as N-methyl derivative, sulfate): no such conversion was detectable |
| 15 to 20% | 100 | 85 | 80 | 0.31 | fail to be irreversibly converted |  |  |  | CC(C)CN[C@H](Cc1ccccc1)C(=O)N1CCC[C@H]1C(=O)N[C@H](C=O)CCCNC(=N)N.O=S(=O)(O)O [N-Isobutyl-D-phenylalanyl-L-prolyl-L-arginine-aldehyde sulfate] |  | 20 | irreversible conversion to the tricyclic compound ([4]; listed as N-isobutyl derivative, sulfate): no such conversion was detectable |
|  | 100 | 100 | 100 | 0.25 |  |  |  |  | CN[C@H](Cc1ccccc1)C(=O)N1CCC[C@H]1C(=O)N[C@@H](C=O)CCCNC(=N)N.O=S(=O)(O)O [N-Methyl-D-phenylalanyl-L-prolyl-D-arginine-aldehyde sulfate] |  |  |  |
